Experimental data taken from patent US20130084640A1, “ANIMAL CELL CULTURE MEDIA COMPRISING NON ANIMAL OR PLANT DERIVED NUTRIENTS” (LIFE TECHNOLOGIES CORPORATION, priority 1999, published 2013).

Test system: VERO cells
Experiment: VERO cell growth in basal medium with non-animal supplements (mean cell count over subcultures, RGE)
Type: cell-based
Method: No attachment factors or coating of the plastic surface are required for the culture of VERO cells. At 3 to 4 days the cells were removed using standard cell culture techniques. The surface of the culture was first washed with Dulbecco's Phosphate Buffered Saline (DPBS) and then 1.0 ml Trypsin-EDTA (Life Technologies, Inc., Rockville, Md.) was added. The digest was allowed to sit on the cell surface for 3 to 5 minutes or until the cells rounded up and began to detach from the surface of the flask. The cells were completely detached by vigorous agitation against the palm of the hand and then 1.5 ml of soybean trypsin inhibitor was added to quickly neutralize enzymatic activity. The cells were counted under the microscope using trypan blue straining solution and new cultures plated at 2.5×10^3 cells per 25 cm^2 flask. Incubation was at 37° C. in 5% CO^2 in air. The cultures were passaged for a total of 4 subcultures and the mean cells per subculture determined from the counts of the final 3 subcultures (P2+P3+P4[…]). Initial studies were designed to formulate a culture medium completely devoid of animal proteins that supports the culture of animal cells. To this end, enzymatic hydrolysates of a variety of non-animal sources were examined as supplements in the basal medium described in Example 1. Hydrolysates of wheat gluten (HYPEP 4301 I, designated below us “Wheat Hydrolysate 1”, and HYPEP 8382, designated below as “Wheat Hydrolysate 2”). soy (HY—SOY) and rice (HYPEP 5115), as well as an extract of baker's yeast (HY-YEST 444) were obtained from Quest International (Norwich, N.Y.) and were formulated into the basal medium of Example 1 at 200 mg/liter. […] To more closely examine their efficacy as supplements for the present media, rice hydrolysates were supplemented into basal media at differing concentrations. These media were then used to examine VERO cell growth as described above. Cell counts were compared to those obtained in basal medium that was unsupplemented (negative control) or to Earle's Modified Eagle's Medium (EMEM) supplemented with 5% fetal bovine serum (FBS; positive control). […] To examine additional sources of non-animal peptides and vitamins as supplements for the present media, extracts of yeast, soy and potato were obtained from Quest International (Norwich, N.Y.) and were supplemented into basal media at differing concentrations. Yeast extract (YE) was also examined as a co-supplement with rice hydrolysate. These media were then used to examine VERO cell growth as described above. Cell counts were compared to those obtained with EMEM supplemented with 5% FBS. […] RGE was calculated as described in Example 2. To more closely examine the use of yeast extract as a supplement in the present media, preparations of YE or an ultrafiltrate of YE (“YEU”) were supplemented into basal media in the presence or absence of 100 mg/liter of rice hydrolysate. These media were then used to examine VERO cell growth as described above. Cell counts were compared to those obtained in EMEM supplemented with 5% FBS (positive control). […] RGE was calculated as described in Example 2. […] These media were then used to examine VERO cell growth as described above. Cell counts were compared to those obtained in basal medium that was unsupplemented (negative control) or to EMEM supplemented with 5% FBS (positive control). […] RGE was calculated as described in Example 2. […] The results in this table represent the mean cells per 25 cm^2 flask in duplicate over 4 subcultures.

## EGF: recombinant human EGF (epidermal growth factor)
Table 6, 0.5 mg/L in basal medium
  Mean Cell Count: 8.0 × 10^5
Table 6, 0.5 mg/L, relative to 5% FBS control
  RGE: 34
Table 6, 1 mg/L in basal medium
  Mean Cell Count: 11.4 × 10^5
Table 6, 1 mg/L, relative to 5% FBS control
  RGE: 49
Table 6, 5 mg/L, relative to 5% FBS control
  RGE: 51
Table 6, 10 mg/L in basal medium
  Mean Cell Count: 22.6 × 10^5
Table 7, 5 mg/L
  Mean Cell Count: 20.2 × 10^5
Table 7, 5 mg/L, relative to 5% FBS control
  RGE: 76
Table 7, 6 mg/L
  Mean Cell Count: 19.3 × 10^5
Table 7, 6 mg/L, relative to 5% FBS control
  RGE: 73
Table 7, 7 mg/L
  Mean Cell Count: 19.6 × 10^5
Table 7, 7 mg/L, relative to 5% FBS control
  RGE: 74
Table 7, 8 mg/1.
  Mean Cell Count: 21.0 × 10^5
Table 7, 8 mg/1., relative to 5% FBS control
  RGE: 79
Table 7, 9 mg/L
  Mean Cell Count: 20.7 × 10^5
Table 7, 9 mg/L, relative to 5% FBS control
  RGE: 78
Table 7, 10 mg/L
  Mean Cell Count: 19.5 × 10^5
Table 7, 10 mg/L, relative to 5% FBS control
  RGE: 73
Table 8, 5 mg/L, as % of 0 mg/L control
  RGE: 137%
Table 8, 5 mg/L, mean cells per 25 cm^2 flask in duplicate over 4 subcultures
  Mean Cell Count: 7.0 × 10^5
Table 8, 6 mg/L, as % of 0 mg/L control
  RGE: 118%
Table 8, 6 mg/L, over 4 subcultures
  Mean Cell Count: 6.0 × 10^5
Table 8, 7 mg/L, as % of 0 mg/L control
  RGE: 139%
Table 8, 7 mg/L, over 4 subcultures
  Mean Cell Count: 7.1 × 10^5
Table 8, 8 mg/L, as % of 0 mg/L control
  RGE: 143%
Table 8, 8 mg/L, over 4 subcultures
  Mean Cell Count: 7.3 × 10^5
Table 8, 9 mg/L, as % of 0 mg/L control
  RGE: 145%
Table 8, 9 mg/L, over 4 subcultures
  Mean Cell Count: 7.4 × 10^5
Table 8, 10 mg/L, as % of 0 mg/L control
  RGE: 133%
Table 8, 10 mg/L, over 4 subcultures
  Mean Cell Count: 6.8 × 10^5
